Experimental data as given in publication PMC6722389, “Cryo-EM structure of the Ustilago maydis kinesin-5 motor domain bound to microtubules” (Journal of Structural Biology, 2019).

Experiments:
N+UmKin5 = molecular target: T1, N+UmKin5 (Mycosarcoma maydis, UniProt A0A0D1DQH0); assay: cryo-EM structure; details: microtubule-bound (bovine brain tubulin, paclitaxel); 5 mM AMPPNP, 1 mM MgCl2, pH 6.8; nucleotide binding site; overall resolution 4.5 Å, motor ~5-7 Å
T1 construct: gene UMAG_10678; motor domain with 72-residue N-terminal extension, residues 1-456; N-terminal His6 tag removed by TEV protease; E. coli BL21*(DE3); monomeric

UmKin5 = molecular target: T2, UmKin5 (Mycosarcoma maydis, UniProt A0A0D1DQH0); assay: cryo-EM structure; details: microtubule-bound (bovine brain tubulin, paclitaxel); 5 mM AMPPNP, 1 mM MgCl2, pH 6.8; nucleotide binding site; overall resolution 4.3 Å, motor ~5-7 Å
T2 construct: gene UMAG_10678; motor domain residues 73-456 without N-terminal extension; N-terminal His6 tag removed by TEV protease; E. coli BL21*(DE3); monomeric

Nc1ncnc2c1ncn2[C@@H]1O[C@H](COP(=O)(O)OP(=O)(O)NP(=O)(O)O)[C@@H](O)[C@H]1O [AMPPNP]
cryo-EM structure (N+UmKin5): Both constructs bound the MT lattice in the presence of the non-hydrolysable ATP analogue AMPPNP
cryo-EM structure (UmKin5): Strong density is visible at the nucleotide binding site consistent with the presence of AMPPNP.
